Test results published in patent EP3154958B1, “PHOSPHATIDYLINOSITOL 3-KINASE INHIBITORS” (Gilead Sciences, Inc., priority 2014, dated 2015).

Key:
Assay type in all cases: biochemical
PI3Kβ = target: T1, PI3Kβ (Homo sapiens, UniProt P42338); assay: TR-FRET enzymatic activity assay, PI3Kβ; settings: recombinant heterodimeric PI3Kβ 25-50 pM, 2× Km ATP, 30 minutes at 25°C
T1 construct: made in house
Summary of the method: (§1)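 TR-FRET read-out of enzyme activity, run separately for each PI3K isoform.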

PI3Kδ = target: T2, PI3Kδ (Homo sapiens, UniProt O00329); assay: TR-FRET enzymatic activity assay, PI3Kδ; settings: recombinant heterodimeric PI3Kδ 25-50 pM, 2× Km ATP, 30 minutes at 25°C
T2 construct: made in house
T2 sequence (O00329 whole entry): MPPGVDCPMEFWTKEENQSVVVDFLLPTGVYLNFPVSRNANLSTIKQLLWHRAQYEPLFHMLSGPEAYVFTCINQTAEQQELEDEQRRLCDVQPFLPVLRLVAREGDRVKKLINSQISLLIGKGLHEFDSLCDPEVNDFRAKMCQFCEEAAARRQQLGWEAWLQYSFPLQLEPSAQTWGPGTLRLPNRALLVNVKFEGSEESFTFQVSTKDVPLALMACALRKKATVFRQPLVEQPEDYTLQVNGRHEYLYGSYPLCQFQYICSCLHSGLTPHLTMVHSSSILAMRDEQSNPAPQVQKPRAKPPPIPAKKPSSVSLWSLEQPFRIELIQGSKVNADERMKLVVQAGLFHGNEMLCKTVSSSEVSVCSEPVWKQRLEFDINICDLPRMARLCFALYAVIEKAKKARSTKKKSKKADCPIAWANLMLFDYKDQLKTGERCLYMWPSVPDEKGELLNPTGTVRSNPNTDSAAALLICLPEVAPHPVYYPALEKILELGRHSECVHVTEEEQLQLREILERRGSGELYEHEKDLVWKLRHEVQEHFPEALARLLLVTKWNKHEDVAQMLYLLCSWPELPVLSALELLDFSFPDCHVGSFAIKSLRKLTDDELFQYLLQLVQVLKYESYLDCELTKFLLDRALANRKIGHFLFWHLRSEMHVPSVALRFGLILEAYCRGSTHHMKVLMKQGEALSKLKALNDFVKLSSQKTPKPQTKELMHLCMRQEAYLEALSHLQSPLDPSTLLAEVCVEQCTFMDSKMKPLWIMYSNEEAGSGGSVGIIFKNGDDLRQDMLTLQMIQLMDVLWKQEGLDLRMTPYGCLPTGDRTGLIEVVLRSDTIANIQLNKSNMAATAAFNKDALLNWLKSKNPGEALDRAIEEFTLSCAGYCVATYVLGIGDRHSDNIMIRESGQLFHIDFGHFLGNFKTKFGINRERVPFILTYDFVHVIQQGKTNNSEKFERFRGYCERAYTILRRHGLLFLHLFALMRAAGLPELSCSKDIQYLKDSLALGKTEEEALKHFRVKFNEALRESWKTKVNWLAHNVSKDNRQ
T2 sequence (P27986 whole entry partner): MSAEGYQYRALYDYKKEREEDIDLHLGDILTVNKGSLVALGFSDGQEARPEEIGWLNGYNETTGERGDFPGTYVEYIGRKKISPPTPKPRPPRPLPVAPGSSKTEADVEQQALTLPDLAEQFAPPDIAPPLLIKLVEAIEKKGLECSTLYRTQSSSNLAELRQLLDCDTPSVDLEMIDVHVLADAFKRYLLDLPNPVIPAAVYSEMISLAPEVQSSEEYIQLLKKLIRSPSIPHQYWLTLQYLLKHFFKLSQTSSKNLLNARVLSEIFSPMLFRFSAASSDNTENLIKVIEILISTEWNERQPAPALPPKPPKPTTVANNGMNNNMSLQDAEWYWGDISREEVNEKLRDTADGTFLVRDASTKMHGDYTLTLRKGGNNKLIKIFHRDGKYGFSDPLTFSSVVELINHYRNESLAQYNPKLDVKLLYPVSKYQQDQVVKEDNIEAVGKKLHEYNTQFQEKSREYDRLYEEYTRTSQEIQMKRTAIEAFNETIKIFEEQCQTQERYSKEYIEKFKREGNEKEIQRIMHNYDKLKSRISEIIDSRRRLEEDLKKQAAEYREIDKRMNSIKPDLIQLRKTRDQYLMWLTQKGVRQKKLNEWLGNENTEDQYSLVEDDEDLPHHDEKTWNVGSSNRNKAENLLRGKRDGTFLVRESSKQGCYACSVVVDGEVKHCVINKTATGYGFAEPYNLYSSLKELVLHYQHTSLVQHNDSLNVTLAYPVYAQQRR
Summary of the method: as §1

PI3Kγ = target: T3, PI3Kγ (Homo sapiens, UniProt P48736); assay: TR-FRET enzymatic activity assay, PI3Kγ; settings: recombinant heterodimeric PI3Kγ 2 nM, 2× Km ATP, 30 minutes at 25°C
T3 construct: made in house
T3 sequence (P48736 whole entry): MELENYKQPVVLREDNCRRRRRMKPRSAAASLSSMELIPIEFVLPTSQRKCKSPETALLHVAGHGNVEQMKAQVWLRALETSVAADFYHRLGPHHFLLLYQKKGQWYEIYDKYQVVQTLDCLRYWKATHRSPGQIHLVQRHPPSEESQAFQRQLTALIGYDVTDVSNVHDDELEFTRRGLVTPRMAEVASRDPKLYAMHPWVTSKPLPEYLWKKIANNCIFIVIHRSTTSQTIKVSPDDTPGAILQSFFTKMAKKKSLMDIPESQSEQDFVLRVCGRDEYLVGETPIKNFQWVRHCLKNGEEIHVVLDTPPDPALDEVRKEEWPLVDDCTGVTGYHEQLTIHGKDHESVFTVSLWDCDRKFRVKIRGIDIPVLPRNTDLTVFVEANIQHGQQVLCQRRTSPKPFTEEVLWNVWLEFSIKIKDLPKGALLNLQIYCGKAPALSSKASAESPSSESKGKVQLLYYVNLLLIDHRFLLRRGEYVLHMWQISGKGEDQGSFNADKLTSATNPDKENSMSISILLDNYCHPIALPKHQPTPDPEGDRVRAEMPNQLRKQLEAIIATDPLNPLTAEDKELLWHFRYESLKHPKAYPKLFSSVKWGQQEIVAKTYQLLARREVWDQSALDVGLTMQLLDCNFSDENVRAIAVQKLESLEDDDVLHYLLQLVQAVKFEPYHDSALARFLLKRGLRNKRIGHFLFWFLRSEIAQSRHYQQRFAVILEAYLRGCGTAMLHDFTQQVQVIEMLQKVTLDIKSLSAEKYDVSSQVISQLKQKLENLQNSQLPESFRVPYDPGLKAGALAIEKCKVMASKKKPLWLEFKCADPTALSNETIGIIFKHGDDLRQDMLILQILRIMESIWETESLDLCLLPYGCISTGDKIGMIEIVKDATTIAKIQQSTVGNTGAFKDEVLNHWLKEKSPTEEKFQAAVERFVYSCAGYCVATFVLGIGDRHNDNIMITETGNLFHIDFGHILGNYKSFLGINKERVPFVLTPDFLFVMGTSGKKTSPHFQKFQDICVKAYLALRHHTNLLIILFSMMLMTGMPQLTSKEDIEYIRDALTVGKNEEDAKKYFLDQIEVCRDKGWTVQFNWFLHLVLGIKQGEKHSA
T3 sequence (Q8WYR1 whole entry partner): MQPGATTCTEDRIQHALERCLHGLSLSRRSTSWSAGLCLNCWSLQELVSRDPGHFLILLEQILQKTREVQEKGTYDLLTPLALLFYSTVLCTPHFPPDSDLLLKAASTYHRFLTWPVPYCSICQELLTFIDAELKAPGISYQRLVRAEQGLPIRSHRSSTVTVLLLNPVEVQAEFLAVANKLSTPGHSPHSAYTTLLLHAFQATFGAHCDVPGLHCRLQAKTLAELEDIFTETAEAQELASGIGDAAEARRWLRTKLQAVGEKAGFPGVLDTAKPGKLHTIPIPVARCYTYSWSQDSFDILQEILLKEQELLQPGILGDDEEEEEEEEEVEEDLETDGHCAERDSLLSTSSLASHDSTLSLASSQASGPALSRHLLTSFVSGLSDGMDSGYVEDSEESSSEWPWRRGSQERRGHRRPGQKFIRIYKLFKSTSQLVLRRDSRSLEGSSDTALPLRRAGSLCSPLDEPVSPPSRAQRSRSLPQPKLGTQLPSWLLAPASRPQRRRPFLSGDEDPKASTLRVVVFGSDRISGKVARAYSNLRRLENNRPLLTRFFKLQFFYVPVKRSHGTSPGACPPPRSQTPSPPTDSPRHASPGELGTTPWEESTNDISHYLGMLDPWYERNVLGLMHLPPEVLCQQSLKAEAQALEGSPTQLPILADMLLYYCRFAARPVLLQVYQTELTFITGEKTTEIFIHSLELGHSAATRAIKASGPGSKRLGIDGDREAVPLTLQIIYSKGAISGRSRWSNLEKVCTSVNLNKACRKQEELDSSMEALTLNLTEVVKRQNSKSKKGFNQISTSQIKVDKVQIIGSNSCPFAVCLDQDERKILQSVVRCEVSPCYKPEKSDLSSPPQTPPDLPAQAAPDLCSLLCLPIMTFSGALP
Summary of the method: as §1

T1 sequence (P42338 whole entry): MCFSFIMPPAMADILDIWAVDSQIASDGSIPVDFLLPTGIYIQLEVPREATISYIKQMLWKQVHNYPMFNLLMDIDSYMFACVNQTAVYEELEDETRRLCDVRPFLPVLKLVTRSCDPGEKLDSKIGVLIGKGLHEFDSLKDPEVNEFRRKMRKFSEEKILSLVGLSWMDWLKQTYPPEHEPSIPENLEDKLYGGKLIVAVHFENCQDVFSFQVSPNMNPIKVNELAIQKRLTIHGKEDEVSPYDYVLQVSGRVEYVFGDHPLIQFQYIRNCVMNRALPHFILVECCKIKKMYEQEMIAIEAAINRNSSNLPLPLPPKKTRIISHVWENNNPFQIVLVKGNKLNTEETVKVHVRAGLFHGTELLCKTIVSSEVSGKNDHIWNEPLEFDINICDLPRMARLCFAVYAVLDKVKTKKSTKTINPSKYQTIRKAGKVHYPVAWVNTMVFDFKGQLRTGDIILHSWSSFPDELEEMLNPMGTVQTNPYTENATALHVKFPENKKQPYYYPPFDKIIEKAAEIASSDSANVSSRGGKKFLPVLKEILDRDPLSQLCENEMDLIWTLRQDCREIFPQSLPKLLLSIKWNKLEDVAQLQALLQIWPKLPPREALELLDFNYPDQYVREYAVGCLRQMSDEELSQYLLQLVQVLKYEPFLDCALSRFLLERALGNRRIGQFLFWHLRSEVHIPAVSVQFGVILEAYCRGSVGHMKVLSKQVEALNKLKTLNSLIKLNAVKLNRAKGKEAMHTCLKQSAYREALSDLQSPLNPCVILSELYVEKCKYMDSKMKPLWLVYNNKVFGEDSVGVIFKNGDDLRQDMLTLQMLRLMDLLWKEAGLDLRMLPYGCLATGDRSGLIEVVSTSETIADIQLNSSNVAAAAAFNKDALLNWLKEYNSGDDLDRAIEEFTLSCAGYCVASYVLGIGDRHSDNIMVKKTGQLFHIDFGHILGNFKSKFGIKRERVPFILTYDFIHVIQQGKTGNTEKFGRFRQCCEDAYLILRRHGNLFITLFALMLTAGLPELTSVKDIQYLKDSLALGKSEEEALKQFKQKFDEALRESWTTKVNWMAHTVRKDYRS
T1 sequence (P27986 whole entry partner): as the sequence (P27986 whole entry partner) above

SMILES	IC50 (PI3Kβ)	IC50 (PI3Kδ)	IC50 (PI3Kγ)
CC[C@H](Nc1nc(N)nc(N)c1C#N)c1nc2c(F)ccc(Cl)c2c(=O)n1N1CCN(Cc2ccccc2)CC1 [Compound 95, (S)-2,4-diamino-6-((1-(3-(4-benzylpiperazin-1-yl)-5-chloro-8-fluoro-4-oxo-3,4-dihydroquinazolin-2-yl)propyl)amino)pyrimidine-5-carbonitrile]	96 nM	38 nM	2000 nM
C[C@H](Nc1nc(N)nc(N)c1C#N)c1nc2cccc(Cl)c2c(=O)n1N1CCN(CCOC(C)(C)C)CC1 [Compound 96, (S)-2,4-diamino-6-((1-(3-(4-(2-(tert-butoxy)ethyl)piperazin-1-yl)-5-chloro-4-oxo-3,4-dihydroquinazolin-2-yl)ethyl)amino)pyrimidine-5-carbonitrile]	10 nM	15 nM	1000 nM
N#Cc1c(N)ncnc1N[C@H](c1nc2cccc(Cl)c2c(=O)n1N1CCNCC1)C1CC1 [Compound 102, (S)-4-amino-6-(((5-chloro-4-oxo-3-(piperazin-1-yl)-3,4-dihydroquinazolin-2-yl)(cyclopropyl)methyl)amino)pyrimidine-5-carbonitrile]	57 nM	2 nM	> 10000 nM
C[C@H](Nc1nc(N)nc(N)c1Cl)c1nc2cccc(Cl)c2c(=O)n1C1CCN(CC(F)(F)F)CC1 [Compound 104, (S)-5-chloro-2-(1-((2,6-diamino-5-chloropyrimidin-4-yl)amino)ethyl)-3-(1-(2,2,2-trifluoroethyl)piperidin-4-yl)quinazolin-4(3H)-one]	10000 nM	260 nM	> 10000 nM
C[C@H](Nc1ncnc(N)c1C#N)c1nc2cccc(Cl)c2c(=O)n1C1CCN(CC(F)F)CC1 [Compound 105, (S)-4-amino-6-((1-(5-chloro-3-(1-(2,2-difluoroethyl)piperidin-4-yl)-4-oxo-3,4-dihydroquinazolin-2-yl)ethyl)amino)pyrimidine-5-carbonitrile]	1900 nM	9 nM	> 10000 nM
Cc1nc(N)nc(N[C@@H](C)c2nc3cccc(Cl)c3c(=O)n2C2CCN(CC(F)(F)F)CC2)c1C#N [Compound 106, (S)-2-amino-4-((1-(5-chloro-4-oxo-3-(1-(2,2,2-trifluoroethyl)piperidin-4-yl)-3,4-dihydroquinazolin-2-yl)ethyl)amino)-6-methylpyrimidine-5-carbonitrile]	260 nM	11 nM	710 nM
C[C@H](Nc1nc(N)nc(N)c1C#N)c1nc2cccc(Cl)c2c(=O)n1N1CCN(CC(F)(F)F)CC1 [Compound 107, (S)-2,4-diamino-6-((1-(5-chloro-4-oxo-3-(4-(2,2,2-trifluoroethyl)piperazin-1-yl)-3,4-dihydroquinazolin-2-yl)ethyl)amino)pyrimidine-5-carbonitrile]	520 nM	16 nM	630 nM
C[C@H](Nc1nc(N)nc(Cl)c1C#N)c1nc2cccc(Cl)c2c(=O)n1N1CCN(CC(F)(F)F)CC1 [Compound 110, (S)-2-amino-4-chloro-6-((1-(5-chloro-4-oxo-3-(4-(2,2,2-trifluoroethyl)piperazin-1-yl)-3,4-dihydroquinazolin-2-yl)ethyl)amino)pyrimidine-5-carbonitrile]	1400 nM	41 nM	2800 nM
Cc1nc(N)nc(N[C@@H](C)c2nc3cccc(Cl)c3c(=O)n2N2CCN(CC(F)F)CC2)c1C#N [Compound 114, (S)-2-amino-4-((1-(5-chloro-3-(4-(2,2-difluoroethyl)piperazin-1-yl)-4-oxo-3,4-dihydroquinazolin-2-yl)ethyl)amino)-6-methylpyrimidine-5-carbonitrile]	300 nM	26 nM	560 nM
C[C@H](Nc1ncnc2scnc12)c1nc2cccc(Cl)c2c(=O)n1N1CCN(CC(F)F)CC1 [Compound 115, (S)-5-chloro-3-(4-(2,2-difluoroethyl)piperazin-1-yl)-2-(1-(thiazolo[5,4-d]pyrimidin-7-ylamino)ethyl)quinazolin-4(3H)-one]	1800 nM	37 nM	5300 nM

Next, values leading:

IC50 (PI3Kβ)	IC50 (PI3Kδ)	IC50 (PI3Kγ)	SMILES
48 nM	18 nM	1300 nM	N#Cc1c(N)nc(N)nc1N[C@H](c1nc2cccc(Cl)c2c(=O)n1N1CCN(Cc2ccccc2)CC1)C1CC1 [Compound 93, (S)-2,4-diamino-6-(((3-(4-benzylpiperazin-1-yl)-5-chloro-4-oxo-3,4-dihydroquinazolin-2-yl)(cyclopropyl)methyl)amino)pyrimidine-5-carbonitrile]
56 nM	32 nM	2900 nM	CC[C@H](Nc1nc(N)nc(N)c1C#N)c1nc2cccc(Cl)c2c(=O)n1N1CCN(Cc2ccccc2)CC1 [Compound 94, (S)-2,4-diamino-6-((1-(3-(4-benzylpiperazin-1-yl)-5-chloro-4-oxo-3,4-dihydroquinazolin-2-yl)propyl)amino)pyrimidine-5-carbonitrile]
93 nM	15 nM	460 nM	C[C@H](Nc1nc(N)nc(N)c1C#N)c1nc2cccc(Cl)c2c(=O)n1N1CCN(C2COC2)CC1 [Compound 97, (S)-2,4-diamino-6-((1-(5-chloro-3-(4-(oxetan-3-yl)piperazin-1-yl)-4-oxo-3,4-dihydroquinazolin-2-yl)ethyl)amino)pyrimidine-5-carbonitrile]
4 nM	5 nM	1200 nM	C[C@H](Nc1nc(N)nc(N)c1C#N)c1nc2cccc(Cl)c2c(=O)n1N1CCN(CC(C)(C)C)CC1 [Compound 98, (S)-2,4-diamino-6-((1-(5-chloro-3-(4-neopentylpiperazin-1-yl)-4-oxo-3,4-dihydroquinazolin-2-yl)ethyl)amino)pyrimidine-5-carbonitrile]
720 nM	14 nM	1600 nM	C[C@H](Nc1nc(N)nc(N)c1C#N)c1nc2cccc(Cl)c2c(=O)n1C1CCN(CC(F)F)CC1 [Compound 99, (S)-2,4-diamino-6-((1-(5-chloro-3-(1-(2,2-difluoroethyl)piperidin-4-yl)-4-oxo-3,4-dihydroquinazolin-2-yl)ethyl)amino)pyrimidine-5-carbonitrile]
970 nM	15 nM	1300 nM	C[C@H](Nc1nc(N)nc(N)c1C#N)c1nc2cccc(Cl)c2c(=O)n1C1CCN(CC(F)(F)F)CC1 [Compound 100, (S)-2,4-diamino-6-((1-(5-chloro-4-oxo-3-(1-(2,2,2-trifluoroethyl)piperidin-4-yl)-3,4-dihydroquinazolin-2-yl)ethyl)amino)pyrimidine-5-carbonitrile]
44 nM	21 nM	4200 nM	C[C@H](Nc1nc(N)nc(N)c1C#N)c1nc2cccc(Cl)c2c(=O)n1C1CCN(Cc2ccccc2)CC1 [Compound 101, (S)-2,4-diamino-6-((1-(3-(1-benzylpiperidin-4-yl)-5-chloro-4-oxo-3,4-dihydroquinazolin-2-yl)ethyl)amino)pyrimidine-5-carbonitrile]
2200 nM	10 nM	> 10000 nM	C[C@H](Nc1ncnc(N)c1C#N)c1nc2cccc(Cl)c2c(=O)n1C1CCN(CC(F)(F)F)CC1 [Compound 103, (S)-4-amino-6-((1-(5-chloro-4-oxo-3-(1-(2,2,2-trifluoroethyl)piperidin-4-yl)-3,4-dihydroquinazolin-2-yl)ethyl)amino)pyrimidine-5-carbonitrile]
6100 nM	170 nM	> 10000 nM	C[C@H](Nc1nc(N)nc(N)c1Cl)c1nc2cccc(Cl)c2c(=O)n1N1CCN(CC(F)(F)F)CC1 [Compound 108, (S)-5-chloro-2-(1-((2,6-diamino-5-chloropyrimidin-4-yl)amino)ethyl)-3-(4-(2,2,2-trifluoroethyl)piperazin-1-yl)quinazolin-4(3H)-one]
290 nM	14 nM	660 nM	Cc1nc(N)nc(N[C@@H](C)c2nc3cccc(Cl)c3c(=O)n2N2CCN(CC(F)(F)F)CC2)c1C#N [Compound 109, (S)-2-amino-4-((1-(5-chloro-4-oxo-3-(4-(2,2,2-trifluoroethyl)piperazin-1-yl)-3,4-dihydroquinazolin-2-yl)ethyl)amino)-6-methylpyrimidine-5-carbonitrile]
530 nM	24 nM	730 nM	C[C@H](Nc1nc(N)nc(N)c1C#N)c1nc2cccc(Cl)c2c(=O)n1N1CCN(CC(F)F)CC1 [Compound 111, (S)-2,4-diamino-6-((1-(5-chloro-3-(4-(2,2-difluoroethyl)piperazin-1-yl)-4-oxo-3,4-dihydroquinazolin-2-yl)ethyl)amino)pyrimidine-5-carbonitrile]
7800 nM	280 nM	> 10000 nM	C[C@H](Nc1nc(N)nc(N)c1Cl)c1nc2cccc(Cl)c2c(=O)n1N1CCN(CC(F)F)CC1 [Compound 112, (S)-5-chloro-2-(1-((2,6-diamino-5-chloropyrimidin-4-yl)amino)ethyl)-3-(4-(2,2-difluoroethyl)piperazin-1-yl)quinazolin-4(3H)-one]
600 nM	42 nM	1300 nM	C[C@H](Nc1nc(N)nc(Cl)c1C#N)c1nc2cccc(Cl)c2c(=O)n1N1CCN(CC(F)F)CC1 [Compound 113, (S)-2-amino-4-chloro-6-((1-(5-chloro-3-(4-(2,2-difluoroethyl)piperazin-1-yl)-4-oxo-3,4-dihydroquinazolin-2-yl)ethyl)amino)pyrimidine-5-carbonitrile]
13 nM	15 nM	470 nM	C[C@H](Nc1nc(N)nc(N)c1C#N)c1nc2c(F)ccc(Cl)c2c(=O)n1N1CCN(Cc2ccccc2)CC1 [Compound 116, (S)-2,4-diamino-6-((1-(3-(4-benzylpiperazin-1-yl)-5-chloro-8-fluoro-4-oxo-3,4-dihydroquinazolin-2-yl)ethyl)amino)pyrimidine-5-carbonitrile]
